Structures are written as SMILES. pKi: −log10 of the molar value. Read-outs that look alike come from different tables or passages of the source.

Consider four molecules from patent US11014911B2, “CDK2 inhibitors” (Pfizer Inc., priority 2019, dated 2021).

Test [1] concerns the target CDK2/Cyclin E1 full length (Homo sapiens (Human), UniProt P24941). In words: CDK2/Cyclin E1 full length mobility shift assay. The format is biochemical.
In test [2] the target is T1, GSK3β (H350L) (Homo sapiens (Human), UniProt P49841). Nature of the test: biochemical. Particulars: GSK3β Ki (nM).
T1 sequence (P49841 whole entry, stated change not applied): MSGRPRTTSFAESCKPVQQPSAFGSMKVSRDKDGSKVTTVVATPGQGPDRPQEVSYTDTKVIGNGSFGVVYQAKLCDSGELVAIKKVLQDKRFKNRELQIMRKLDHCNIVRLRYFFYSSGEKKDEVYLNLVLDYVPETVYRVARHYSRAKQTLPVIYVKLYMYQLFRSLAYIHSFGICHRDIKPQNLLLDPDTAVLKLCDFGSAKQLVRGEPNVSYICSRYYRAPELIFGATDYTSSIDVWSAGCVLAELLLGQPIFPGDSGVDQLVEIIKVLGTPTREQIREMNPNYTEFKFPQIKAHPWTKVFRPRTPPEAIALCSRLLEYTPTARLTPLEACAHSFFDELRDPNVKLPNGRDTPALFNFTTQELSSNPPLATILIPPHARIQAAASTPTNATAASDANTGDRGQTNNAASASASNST
Experimental: (§1) The assay was initiated with the addition of ATP, following 15 minutes pre-incubation of enzyme and inhibitor at room temperature in the reaction mixture. The reaction was stopped after 30 minutes at room temperature by the addition of 50 μL of 80 mM EDTA.
In a further test the target is CDK6/cyclin D3 (Homo sapiens (Human), UniProt Q00534). In words: CDK6/Cyclin D3 mobility shift assay. Particulars: Biochemical Assay: CDK6/cyclin D3. An excerpt:
CDK6/Cyclin D3 Mobility Shift Assay

The target in another test is CDK9 (Homo sapiens (Human), UniProt P50750). In words: CDK9 biochemical assay.
CDK9, sequence (P50750 whole entry, looked up): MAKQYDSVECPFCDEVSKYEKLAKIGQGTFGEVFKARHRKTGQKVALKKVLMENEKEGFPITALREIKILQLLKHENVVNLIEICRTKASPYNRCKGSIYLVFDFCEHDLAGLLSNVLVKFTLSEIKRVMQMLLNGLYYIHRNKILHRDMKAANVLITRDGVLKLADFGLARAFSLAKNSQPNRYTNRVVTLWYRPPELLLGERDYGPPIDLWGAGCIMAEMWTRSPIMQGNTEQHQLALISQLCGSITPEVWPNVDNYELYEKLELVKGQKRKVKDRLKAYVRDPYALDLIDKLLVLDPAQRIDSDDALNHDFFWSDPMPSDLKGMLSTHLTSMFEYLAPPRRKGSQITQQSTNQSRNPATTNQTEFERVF
CDK9, sequence (O60563 whole entry partner, looked up): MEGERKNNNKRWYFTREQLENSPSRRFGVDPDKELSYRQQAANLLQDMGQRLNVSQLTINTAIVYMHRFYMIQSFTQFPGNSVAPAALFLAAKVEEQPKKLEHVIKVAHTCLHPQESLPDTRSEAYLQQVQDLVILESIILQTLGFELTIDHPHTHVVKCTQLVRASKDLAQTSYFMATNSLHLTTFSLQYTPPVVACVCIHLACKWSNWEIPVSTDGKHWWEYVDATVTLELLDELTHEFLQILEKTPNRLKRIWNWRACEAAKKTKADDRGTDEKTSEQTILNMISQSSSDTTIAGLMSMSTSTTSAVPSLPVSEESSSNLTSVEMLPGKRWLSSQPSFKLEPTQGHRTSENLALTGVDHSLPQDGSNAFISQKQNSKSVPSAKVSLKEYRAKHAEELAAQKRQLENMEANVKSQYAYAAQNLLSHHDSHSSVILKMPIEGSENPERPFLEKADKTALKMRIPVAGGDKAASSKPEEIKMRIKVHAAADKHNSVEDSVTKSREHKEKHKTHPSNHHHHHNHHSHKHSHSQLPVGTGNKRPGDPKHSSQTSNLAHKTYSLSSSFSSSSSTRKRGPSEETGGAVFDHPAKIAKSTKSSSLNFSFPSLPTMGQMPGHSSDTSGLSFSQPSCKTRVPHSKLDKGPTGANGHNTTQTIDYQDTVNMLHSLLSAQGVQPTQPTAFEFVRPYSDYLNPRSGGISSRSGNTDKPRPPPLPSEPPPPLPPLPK
Test [3] has as its target T1, GSK3β (H350L). Particulars: read-out: GSK3β Ki.
Experimental: as §1
A further test addresses CDK1/cyclin A2 (Homo sapiens (Human), UniProt P06493). In words: CDK1/cyclin A2 biochemical assay.

CDK6/cyclin D3, sequence (Q00534 whole entry, looked up): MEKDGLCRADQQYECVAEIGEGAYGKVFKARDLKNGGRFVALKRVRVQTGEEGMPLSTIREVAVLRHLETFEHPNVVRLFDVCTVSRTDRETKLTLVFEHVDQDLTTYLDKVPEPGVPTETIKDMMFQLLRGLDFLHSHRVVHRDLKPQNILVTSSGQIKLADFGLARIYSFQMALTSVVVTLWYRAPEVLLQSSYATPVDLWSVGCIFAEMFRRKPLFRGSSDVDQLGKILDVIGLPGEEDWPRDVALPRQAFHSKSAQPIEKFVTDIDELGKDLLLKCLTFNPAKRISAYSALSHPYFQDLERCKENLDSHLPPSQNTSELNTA
CDK6/cyclin D3, sequence (P30281 whole entry partner, looked up): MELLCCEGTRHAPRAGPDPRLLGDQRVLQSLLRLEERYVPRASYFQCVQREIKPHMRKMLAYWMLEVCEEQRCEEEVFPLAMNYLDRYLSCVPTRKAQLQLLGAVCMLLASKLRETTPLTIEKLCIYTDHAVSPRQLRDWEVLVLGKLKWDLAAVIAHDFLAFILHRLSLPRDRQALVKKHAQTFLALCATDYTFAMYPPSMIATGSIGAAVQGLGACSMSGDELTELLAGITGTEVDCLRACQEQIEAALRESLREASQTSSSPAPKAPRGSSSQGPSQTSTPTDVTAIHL
CDK1/cyclin A2, sequence (P06493 whole entry, looked up): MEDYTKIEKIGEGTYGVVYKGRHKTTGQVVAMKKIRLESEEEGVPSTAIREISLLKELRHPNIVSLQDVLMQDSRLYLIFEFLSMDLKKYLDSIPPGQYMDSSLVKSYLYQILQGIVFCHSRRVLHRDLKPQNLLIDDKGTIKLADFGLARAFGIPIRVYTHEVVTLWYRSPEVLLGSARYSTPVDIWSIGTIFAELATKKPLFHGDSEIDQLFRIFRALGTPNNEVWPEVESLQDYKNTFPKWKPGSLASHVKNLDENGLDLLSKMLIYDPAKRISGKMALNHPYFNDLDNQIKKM
CDK1/cyclin A2, sequence (P20248 whole entry partner, looked up): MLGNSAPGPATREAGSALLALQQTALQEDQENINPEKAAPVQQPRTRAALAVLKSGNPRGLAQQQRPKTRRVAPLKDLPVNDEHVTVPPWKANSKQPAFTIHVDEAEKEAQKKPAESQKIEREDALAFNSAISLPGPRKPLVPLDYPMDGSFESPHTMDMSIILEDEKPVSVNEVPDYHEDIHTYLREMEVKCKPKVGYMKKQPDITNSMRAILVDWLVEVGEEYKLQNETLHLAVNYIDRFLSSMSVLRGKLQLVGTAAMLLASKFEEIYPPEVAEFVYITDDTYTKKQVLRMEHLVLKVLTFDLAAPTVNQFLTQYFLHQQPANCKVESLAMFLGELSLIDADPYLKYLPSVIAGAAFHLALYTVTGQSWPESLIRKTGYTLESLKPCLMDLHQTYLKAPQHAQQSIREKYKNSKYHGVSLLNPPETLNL

With `COCc1cc(C(=O)Nc2cc([C@H]3CC[C@@H](OC(=O)NC4(C)CC4)C3)[nH]n2)n(C)n1` [Example 8, (1R,3S)-3-[3-({[3-(methoxymethyl)-1-methyl-1H-pyrazol-5-yl]carbonyl}amino)-1H-pyrazol-5-yl]cyclopentyl (1-methylcyclopropyl)carbamate], the pKi in test [1] was 9.30. Moreover, on GSK3β (H350L) [2], the affinity, expressed as Ki, was 667 nM.

`COCc1cc(C(=O)Nc2cc([C@H]3CC[C@@H](OC(=O)NC(C)C)C3)[nH]n2)n(C)n1` [Example 13, (1R,3S)-3-[3-({[3-(methoxymethyl)-1-methyl-1H-pyrazol-5-yl]carbonyl}amino)-1H-pyrazol-5-yl]cyclopentyl propan-2-ylcarbamate]: the pKi is 6.33 at CDK6/cyclin D3, 6.75 on CDK9 and 6.27 on GSK3β (H350L) [3].

Regarding `Cc1cc(CC(=O)Nc2cc([C@H]3CC[C@@H](OC(=O)NC4(C)CC4)C3)[nH]n2)on1` [Example 15, (1R,3S)-3-(3-{[(3-methyl-1,2-oxazol-5-yl)acetyl]amino}-1H-pyrazol-5-yl)cyclopentyl (1-methylcyclopropyl)carbamate], the pKi in test [1] was 9.77; on CDK6/cyclin D3 it was 7.23; on CDK1/cyclin A2, 7.79; on CDK9 it was 8.20; on GSK3β (H350L) [3] it was 7.53.

As to `CC[C@H](C)NC(=O)O[C@@H]1CC[C@H](c2cc(NC(=O)Cc3ccno3)n[nH]2)C1` [Example 16, (1R,3S)-3-{3-[(1,2-oxazol-5-ylacetyl)amino]-1H-pyrazol-5-yl}cyclopentyl (2S)-butan-2-ylcarbamate], the pKi in test [1] is 9.43. The affinity at GSK3β (H350L) [2], expressed as Ki, was 51.7 nM.

The term pKi denotes −log10 of the Ki, conventionally taken in molar units. A word on the Ki: it is a dissociation constant, usually derived from enzyme kinetics or from competition with a known ligand.
